According to PubChem BioAssay (NCI):
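Assay format: 96-well plates, 48-hour exposure. At the GI50, growth is halved. TGI: total growth inhibition.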

Experiments:
Assay in all cases: NCI anticancer screen, dose series, 48 h
HS 578T breast = system: HS 578T breast
RPMI-8226 leukemia = system: RPMI-8226 leukemia
SNB-75 CNS = system: SNB-75 CNS
HT29 colon = system: HT29 colon
CCRF-CEM leukemia = system: CCRF-CEM leukemia
COLO 205 colon = system: COLO 205 colon
SNB-19 CNS = system: SNB-19 CNS
A549 NSCLC = system: A549 NSCLC
OVCAR-5 ovarian = system: OVCAR-5 ovarian
UO-31 renal = system: UO-31 renal
TK-10 renal = system: TK-10 renal
SK-MEL-28 melanoma = system: SK-MEL-28 melanoma
MCF7 breast = system: MCF7 breast
SR leukemia = system: SR leukemia
MALME-3M melanoma = system: MALME-3M melanoma
IGROV1 ovarian = system: IGROV1 ovarian
UACC-257 melanoma = system: UACC-257 melanoma
LOX IMVI melanoma = system: LOX IMVI melanoma
BT-549 breast = system: BT-549 breast
OVCAR-3 ovarian = system: OVCAR-3 ovarian
OVCAR-4 ovarian = system: OVCAR-4 ovarian
NCI/ADR-RES ovarian = system: NCI/ADR-RES ovarian
SF-539 CNS = system: SF-539 CNS
MOLT-4 leukemia = system: MOLT-4 leukemia
SK-OV-3 ovarian = system: SK-OV-3 ovarian
K-562 leukemia = system: K-562 leukemia
HOP-92 NSCLC = system: HOP-92 NSCLC
MDA-MB-435 = system: MDA-MB-435
A498 renal = system: A498 renal
SK-MEL-5 melanoma = system: SK-MEL-5 melanoma
M14 melanoma = system: M14 melanoma
EKVX NSCLC = system: EKVX NSCLC
MDA-MB-231 breast = system: MDA-MB-231 breast
CAKI-1 renal = system: CAKI-1 renal
SN12C renal = system: SN12C renal
U251 CNS = system: U251 CNS
HCT-116 colon = system: HCT-116 colon
KM12 colon = system: KM12 colon
NCI-H226 lung = system: NCI-H226 lung
NCI-H23 lung = system: NCI-H23 lung
HCT-15 colon = system: HCT-15 colon
NCI-H522 lung = system: NCI-H522 lung
UACC-62 melanoma = system: UACC-62 melanoma
ACHN renal = system: ACHN renal
SF-295 CNS = system: SF-295 CNS
786-0 renal = system: 786-0 renal
RXF 393 renal = system: RXF 393 renal
PC-3 prostate = system: PC-3 prostate
HOP-62 NSCLC = system: HOP-62 NSCLC
SK-MEL-2 melanoma = system: SK-MEL-2 melanoma
NCI-H460 lung = system: NCI-H460 lung
DU-145 prostate = system: DU-145 prostate
OVCAR-8 ovarian = system: OVCAR-8 ovarian
SF-268 CNS = system: SF-268 CNS
HCC-2998 colon = system: HCC-2998 colon
HL-60(TB) leukemia = system: HL-60(TB) leukemia
SW-620 colon = system: SW-620 colon
T-47D breast = system: T-47D breast

O=C(COc1ccc(/C=C2\Oc3ccc4ccccc4c3C2=O)cc1)c1ccc([N+](=O)[O-])cc1
GI50 (HS 578T breast): 18.5 µM | TGI (HS 578T breast): 57 µM | GI50 (RPMI-8226 leukemia): 1.6 µM | TGI (RPMI-8226 leukemia): 5.11 µM | GI50 (SNB-75 CNS): 1.47 µM | TGI (SNB-75 CNS): 13.6 µM | GI50 (HT29 colon): 9.05 µM | TGI (HT29 colon): 24 µM | GI50 (CCRF-CEM leukemia): 1.81 µM | TGI (CCRF-CEM leukemia): 4.12 µM | GI50 (COLO 205 colon): 11.2 µM | TGI (COLO 205 colon): 33.5 µM | GI50 (SNB-19 CNS): 15.6 µM | TGI (SNB-19 CNS): 35.6 µM | GI50 (A549 NSCLC): 45 µM | TGI (A549 NSCLC): > 100 µM | GI50 (OVCAR-5 ovarian): 16.4 µM | TGI (OVCAR-5 ovarian): 30.7 µM | GI50 (UO-31 renal): 10.6 µM | TGI (UO-31 renal): 39.3 µM | GI50 (TK-10 renal): 16.6 µM | TGI (TK-10 renal): 49.3 µM | GI50 (SK-MEL-28 melanoma): 19.4 µM | TGI (SK-MEL-28 melanoma): 40.2 µM | GI50 (MCF7 breast): 1.71 µM | TGI (MCF7 breast): 20.3 µM | GI50 (SR leukemia): 0.0291 µM | TGI (SR leukemia): 1.84 µM | GI50 (MALME-3M melanoma): 13.3 µM | TGI (MALME-3M melanoma): 39.8 µM | GI50 (IGROV1 ovarian): 4.06 µM | TGI (IGROV1 ovarian): 34.1 µM | GI50 (UACC-257 melanoma): 18.9 µM | TGI (UACC-257 melanoma): 58.5 µM | GI50 (LOX IMVI melanoma): 2.88 µM | TGI (LOX IMVI melanoma): 10.8 µM | GI50 (BT-549 breast): 11.1 µM | TGI (BT-549 breast): 26.4 µM | GI50 (OVCAR-3 ovarian): 4.59 µM | TGI (OVCAR-3 ovarian): 17.4 µM | GI50 (OVCAR-4 ovarian): 2.14 µM | TGI (OVCAR-4 ovarian): 8.87 µM | GI50 (NCI/ADR-RES ovarian): 21.8 µM | TGI (NCI/ADR-RES ovarian): 82.1 µM | GI50 (SF-539 CNS): 13.8 µM | TGI (SF-539 CNS): 28.1 µM | GI50 (MOLT-4 leukemia): 1.87 µM | TGI (MOLT-4 leukemia): 5.56 µM | GI50 (SK-OV-3 ovarian): 24.2 µM | TGI (SK-OV-3 ovarian): 73.7 µM | GI50 (K-562 leukemia): 5.19 µM | TGI (K-562 leukemia): > 100 µM | GI50 (HOP-92 NSCLC): 19.8 µM | TGI (HOP-92 NSCLC): 69.6 µM | GI50 (MDA-MB-435): 12.2 µM | TGI (MDA-MB-435): 29.1 µM | GI50 (A498 renal): 41.5 µM | TGI (A498 renal): > 100 µM | GI50 (SK-MEL-5 melanoma): 13.2 µM | TGI (SK-MEL-5 melanoma): 28.9 µM | GI50 (M14 melanoma): 12.1 µM | TGI (M14 melanoma): 40.6 µM | GI50 (EKVX NSCLC): 47.6 µM | TGI (EKVX NSCLC): > 100 µM | GI50 (MDA-MB-231 breast): 19 µM | TGI (MDA-MB-231 breast): 71.9 µM | GI50 (CAKI-1 renal): 18.8 µM | TGI (CAKI-1 renal): 35.4 µM | GI50 (SN12C renal): 10.5 µM | TGI (SN12C renal): 30.7 µM | GI50 (U251 CNS): 13.1 µM | TGI (U251 CNS): 25.8 µM | GI50 (HCT-116 colon): 3.03 µM | TGI (HCT-116 colon): 13.8 µM | GI50 (KM12 colon): 10.9 µM | TGI (KM12 colon): 23.4 µM | GI50 (NCI-H226 lung): 16.7 µM | TGI (NCI-H226 lung): 39.1 µM | GI50 (NCI-H23 lung): 12.5 µM | TGI (NCI-H23 lung): 29.4 µM | GI50 (HCT-15 colon): 7.6 µM | TGI (HCT-15 colon): 20.4 µM | GI50 (NCI-H522 lung): 2.04 µM | TGI (NCI-H522 lung): 5.41 µM | GI50 (UACC-62 melanoma): 11.9 µM | TGI (UACC-62 melanoma): 25.9 µM | GI50 (ACHN renal): 28.3 µM | TGI (ACHN renal): 88.2 µM | GI50 (SF-295 CNS): 13.7 µM | TGI (SF-295 CNS): 36.4 µM | GI50 (786-0 renal): 14.7 µM | TGI (786-0 renal): 34.6 µM | GI50 (RXF 393 renal): 8.55 µM | TGI (RXF 393 renal): 60.5 µM | GI50 (PC-3 prostate): 9.36 µM | TGI (PC-3 prostate): 21.3 µM | GI50 (HOP-62 NSCLC): 26.7 µM | TGI (HOP-62 NSCLC): 61.6 µM | GI50 (SK-MEL-2 melanoma): 15.5 µM | TGI (SK-MEL-2 melanoma): 73.7 µM | GI50 (NCI-H460 lung): 16.5 µM | TGI (NCI-H460 lung): 40.2 µM | GI50 (DU-145 prostate): 10.9 µM | TGI (DU-145 prostate): 23.1 µM | GI50 (OVCAR-8 ovarian): 4.88 µM | TGI (OVCAR-8 ovarian): 23.2 µM | GI50 (SF-268 CNS): 13.2 µM | TGI (SF-268 CNS): 33.7 µM | GI50 (HCC-2998 colon): 16.7 µM | TGI (HCC-2998 colon): 31.6 µM | GI50 (HL-60(TB) leukemia): 2.61 µM | TGI (HL-60(TB) leukemia): 16.2 µM | GI50 (SW-620 colon): 3.88 µM | TGI (SW-620 colon): 14.1 µM | GI50 (T-47D breast): 2.85 µM | TGI (T-47D breast): 23.8 µM
